Measured values reported in ChEMBL document CHEMBL1201862, “PubChem BioAssay data set” (2004).
Activity calls are given as the source filed them.

Legend:
Caspase-3 = biological target: T1, Caspase-3 (Homo sapiens, UniProt P42574); assay: procaspase-3 activation potency of dual hits, dose response, counter-screen for dual procaspase-3/7 activator project, biochemical, absorbance, PC-3 D3A mutant (AID 504328)
T1 sequence (P42574 whole entry): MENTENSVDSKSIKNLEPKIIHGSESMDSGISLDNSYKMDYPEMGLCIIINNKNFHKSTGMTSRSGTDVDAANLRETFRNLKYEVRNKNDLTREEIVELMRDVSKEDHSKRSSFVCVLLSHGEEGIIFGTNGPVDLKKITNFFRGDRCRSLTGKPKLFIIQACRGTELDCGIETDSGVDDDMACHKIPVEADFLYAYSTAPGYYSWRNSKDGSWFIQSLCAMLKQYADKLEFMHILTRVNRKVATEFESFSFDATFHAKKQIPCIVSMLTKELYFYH

Caspase-7 = Caspase-7 (Homo sapiens, UniProt P55210); assay: procaspase-7 activators, dose response, dual procaspase-3/-7 activator project, biochemical, absorbance, human (AID 504330)
[1] = biological target: T2, Replicative DNA helicase DnaB (Mycobacterium tuberculosis, UniProt P9WMR3); assay: DnaB intein splicing inhibitors, dose response, biochemical, cell-free fluorescence (AID 449749); type: functional
T2 sequence (P9WMR3 whole entry): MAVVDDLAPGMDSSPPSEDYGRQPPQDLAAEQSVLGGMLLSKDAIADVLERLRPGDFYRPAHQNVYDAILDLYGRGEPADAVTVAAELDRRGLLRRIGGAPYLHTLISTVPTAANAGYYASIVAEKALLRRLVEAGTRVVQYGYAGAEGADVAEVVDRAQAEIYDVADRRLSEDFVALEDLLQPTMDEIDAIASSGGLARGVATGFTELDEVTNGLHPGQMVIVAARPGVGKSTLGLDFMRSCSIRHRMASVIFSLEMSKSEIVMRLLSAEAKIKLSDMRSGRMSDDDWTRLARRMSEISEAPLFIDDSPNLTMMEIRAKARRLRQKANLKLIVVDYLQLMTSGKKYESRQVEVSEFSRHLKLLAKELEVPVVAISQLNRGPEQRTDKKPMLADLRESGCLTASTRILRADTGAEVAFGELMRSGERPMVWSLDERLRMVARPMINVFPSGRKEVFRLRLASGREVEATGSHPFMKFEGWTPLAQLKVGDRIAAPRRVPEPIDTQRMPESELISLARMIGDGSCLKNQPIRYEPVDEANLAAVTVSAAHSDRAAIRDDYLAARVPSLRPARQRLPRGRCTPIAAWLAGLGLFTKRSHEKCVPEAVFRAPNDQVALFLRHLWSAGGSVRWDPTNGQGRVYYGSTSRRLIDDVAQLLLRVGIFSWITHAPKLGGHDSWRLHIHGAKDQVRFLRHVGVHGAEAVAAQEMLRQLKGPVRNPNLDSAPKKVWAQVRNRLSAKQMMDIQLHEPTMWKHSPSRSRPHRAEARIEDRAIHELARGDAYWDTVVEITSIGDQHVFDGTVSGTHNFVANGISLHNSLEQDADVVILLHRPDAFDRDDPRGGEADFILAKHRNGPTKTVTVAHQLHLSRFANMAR

Protein RecA = biological target: T3, Protein RecA (Mycobacterium tuberculosis, UniProt P9WHJ3); assay: Fluorescence Cell-Free Homogeneous Dose Retest to Identify Inhibitors of RecA-Intein Splicing Activity. [Related pubchem assays (depositor defined):AID2097, AID2223, AID489010, AID492950]; type: functional
T3 sequence (P9WHJ3 whole entry): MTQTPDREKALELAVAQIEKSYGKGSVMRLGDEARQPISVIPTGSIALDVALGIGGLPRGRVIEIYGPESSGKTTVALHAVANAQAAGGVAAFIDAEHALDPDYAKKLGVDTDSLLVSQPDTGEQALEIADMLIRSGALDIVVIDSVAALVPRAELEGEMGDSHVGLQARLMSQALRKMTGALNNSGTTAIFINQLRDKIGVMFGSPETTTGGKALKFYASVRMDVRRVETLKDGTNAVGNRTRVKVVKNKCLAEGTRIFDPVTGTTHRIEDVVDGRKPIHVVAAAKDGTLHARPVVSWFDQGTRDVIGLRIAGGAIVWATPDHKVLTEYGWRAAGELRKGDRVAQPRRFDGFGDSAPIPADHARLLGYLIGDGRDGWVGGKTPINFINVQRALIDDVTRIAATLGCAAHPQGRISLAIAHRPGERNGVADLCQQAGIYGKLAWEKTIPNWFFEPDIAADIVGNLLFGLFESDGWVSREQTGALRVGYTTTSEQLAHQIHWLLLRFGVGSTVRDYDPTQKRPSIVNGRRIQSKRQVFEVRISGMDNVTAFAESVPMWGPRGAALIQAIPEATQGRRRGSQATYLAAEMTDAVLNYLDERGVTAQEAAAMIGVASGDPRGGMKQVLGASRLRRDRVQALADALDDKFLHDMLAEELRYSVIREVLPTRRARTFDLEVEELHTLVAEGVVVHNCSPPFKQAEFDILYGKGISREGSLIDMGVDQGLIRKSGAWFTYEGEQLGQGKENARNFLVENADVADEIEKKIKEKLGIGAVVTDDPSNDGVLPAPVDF

[2] = biological target: Alkaline phosphatase, placental type (Homo sapiens, UniProt P05187); assay: PLAP enzyme inhibitors, confirmation, biochemical, luminescence (AID 1512); type: functional
[3] = biological target: T4, Tyrosine-protein phosphatase non-receptor type 7 (Homo sapiens, UniProt P35236); assay: SAR analysis of chemical inhibitors of HePTP using a Fluorescent assay - Set 2. [Related pubchem assays (depositor defined):AID1059, AID1077, AID1661, AID2085, AID521]; type: functional
T4 sequence (P35236 whole entry): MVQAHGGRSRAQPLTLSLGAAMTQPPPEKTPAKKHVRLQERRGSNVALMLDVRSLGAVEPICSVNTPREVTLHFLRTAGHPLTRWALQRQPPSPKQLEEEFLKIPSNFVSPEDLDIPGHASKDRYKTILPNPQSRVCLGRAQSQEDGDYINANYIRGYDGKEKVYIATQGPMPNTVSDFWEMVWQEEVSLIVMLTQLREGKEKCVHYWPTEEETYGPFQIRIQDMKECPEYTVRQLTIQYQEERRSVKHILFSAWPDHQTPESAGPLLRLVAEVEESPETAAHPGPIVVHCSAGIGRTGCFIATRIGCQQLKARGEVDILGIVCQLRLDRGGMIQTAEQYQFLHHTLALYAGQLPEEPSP

[4] = biological target: Dual specificity protein phosphatase 3 (Homo sapiens, UniProt P51452); assay: SAR VHR1 Fluorescent Assay for In Vitro dose response studies Set 2. [Related pubchem assays (depositor defined):AID1654, AID1661, AID1878]; type: functional
[5] = biological target: T5, G-protein coupled receptor 55 (Homo sapiens, UniProt Q9Y2T6); assay: GPR55 agonists via beta-arrestin recruitment, primary screen, imaging, U2OS cells, beta-arrestin-GFP redistribution (AID 1961); type: functional
[6] = biological target: T5, G-protein coupled receptor 55; assay: GPR55 antagonists blocking LPI-driven arrestin recruitment, primary screen, imaging, U2OS, beta-arrestin-GFP, LPI agonist (AID 2013); type: functional;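 note: antagonist potency measured as reduced agonist-driven arrestin aggregation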
[7] = biological target: Voltage-dependent T-type calcium channel subunit alpha-1H (Homo sapiens, UniProt O95180); type: functional;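 note: channel activity triggered by adding a high calcium stimulation buffer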
Chain of Voltage-dependent T-type calcium channel subunit alpha-1H (O95180 whole entry): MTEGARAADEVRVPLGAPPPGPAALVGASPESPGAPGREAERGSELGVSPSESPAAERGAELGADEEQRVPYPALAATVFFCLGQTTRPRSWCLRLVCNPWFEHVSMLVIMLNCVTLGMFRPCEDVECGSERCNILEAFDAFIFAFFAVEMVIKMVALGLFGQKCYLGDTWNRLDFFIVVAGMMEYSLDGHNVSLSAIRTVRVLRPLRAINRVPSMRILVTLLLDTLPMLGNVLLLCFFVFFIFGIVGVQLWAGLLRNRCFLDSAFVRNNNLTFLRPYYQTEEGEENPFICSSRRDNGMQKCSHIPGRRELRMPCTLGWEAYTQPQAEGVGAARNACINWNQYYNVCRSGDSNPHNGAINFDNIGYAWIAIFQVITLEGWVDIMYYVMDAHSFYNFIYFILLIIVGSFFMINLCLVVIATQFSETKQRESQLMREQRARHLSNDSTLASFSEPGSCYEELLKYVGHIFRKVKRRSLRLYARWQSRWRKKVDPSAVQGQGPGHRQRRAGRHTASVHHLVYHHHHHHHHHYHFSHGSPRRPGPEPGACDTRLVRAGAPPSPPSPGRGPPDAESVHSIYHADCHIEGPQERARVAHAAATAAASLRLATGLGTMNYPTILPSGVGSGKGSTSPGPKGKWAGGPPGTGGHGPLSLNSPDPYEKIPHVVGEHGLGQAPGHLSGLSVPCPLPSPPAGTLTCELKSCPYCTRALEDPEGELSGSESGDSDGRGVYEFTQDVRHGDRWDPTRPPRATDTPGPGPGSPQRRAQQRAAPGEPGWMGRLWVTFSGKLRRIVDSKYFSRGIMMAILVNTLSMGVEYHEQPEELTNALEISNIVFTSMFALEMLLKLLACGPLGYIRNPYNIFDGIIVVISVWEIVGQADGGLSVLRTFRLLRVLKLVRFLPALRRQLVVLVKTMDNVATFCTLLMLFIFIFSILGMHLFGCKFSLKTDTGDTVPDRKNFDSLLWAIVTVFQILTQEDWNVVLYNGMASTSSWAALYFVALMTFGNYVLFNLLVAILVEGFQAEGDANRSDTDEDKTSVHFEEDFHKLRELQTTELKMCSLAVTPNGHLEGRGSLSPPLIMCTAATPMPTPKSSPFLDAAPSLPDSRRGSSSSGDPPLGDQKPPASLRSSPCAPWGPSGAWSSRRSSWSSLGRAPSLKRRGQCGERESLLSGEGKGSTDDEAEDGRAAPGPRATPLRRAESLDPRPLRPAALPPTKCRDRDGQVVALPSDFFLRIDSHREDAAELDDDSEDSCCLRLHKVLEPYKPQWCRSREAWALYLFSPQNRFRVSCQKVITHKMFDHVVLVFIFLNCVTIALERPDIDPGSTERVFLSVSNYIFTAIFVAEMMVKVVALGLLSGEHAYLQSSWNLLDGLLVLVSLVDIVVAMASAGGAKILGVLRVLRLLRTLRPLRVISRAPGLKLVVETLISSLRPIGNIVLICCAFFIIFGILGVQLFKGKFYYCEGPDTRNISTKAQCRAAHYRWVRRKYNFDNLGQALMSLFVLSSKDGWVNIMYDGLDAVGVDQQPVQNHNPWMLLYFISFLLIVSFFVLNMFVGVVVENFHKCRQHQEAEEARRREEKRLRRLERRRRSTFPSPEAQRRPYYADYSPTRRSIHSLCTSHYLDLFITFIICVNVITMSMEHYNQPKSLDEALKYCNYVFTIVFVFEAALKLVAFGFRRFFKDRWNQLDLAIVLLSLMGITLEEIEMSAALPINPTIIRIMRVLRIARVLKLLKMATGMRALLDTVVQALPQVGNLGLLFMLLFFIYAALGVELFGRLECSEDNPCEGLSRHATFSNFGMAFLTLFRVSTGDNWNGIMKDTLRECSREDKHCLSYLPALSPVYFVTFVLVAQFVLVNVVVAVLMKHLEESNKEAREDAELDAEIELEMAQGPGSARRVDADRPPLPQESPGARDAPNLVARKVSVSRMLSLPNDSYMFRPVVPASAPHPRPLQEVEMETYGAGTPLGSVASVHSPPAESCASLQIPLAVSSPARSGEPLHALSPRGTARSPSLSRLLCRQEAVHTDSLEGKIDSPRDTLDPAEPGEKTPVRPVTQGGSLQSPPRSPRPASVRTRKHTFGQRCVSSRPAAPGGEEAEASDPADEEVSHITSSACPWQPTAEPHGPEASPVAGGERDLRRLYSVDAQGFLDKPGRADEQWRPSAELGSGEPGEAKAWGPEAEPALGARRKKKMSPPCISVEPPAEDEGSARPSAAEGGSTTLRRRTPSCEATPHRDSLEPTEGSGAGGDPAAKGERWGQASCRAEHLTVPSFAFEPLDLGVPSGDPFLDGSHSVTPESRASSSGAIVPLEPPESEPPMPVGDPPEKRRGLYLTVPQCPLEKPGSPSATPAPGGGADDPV

T5 sequence (Q9Y2T6 whole entry): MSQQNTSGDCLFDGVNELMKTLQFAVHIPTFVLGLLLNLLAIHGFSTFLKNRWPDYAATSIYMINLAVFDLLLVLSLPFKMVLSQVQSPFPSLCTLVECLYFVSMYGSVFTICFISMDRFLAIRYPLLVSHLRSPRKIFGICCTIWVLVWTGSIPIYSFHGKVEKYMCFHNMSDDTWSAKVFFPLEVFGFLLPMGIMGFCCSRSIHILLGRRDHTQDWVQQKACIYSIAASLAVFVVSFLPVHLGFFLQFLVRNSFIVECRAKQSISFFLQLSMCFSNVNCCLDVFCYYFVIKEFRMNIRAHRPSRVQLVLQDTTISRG
Chain of Alkaline phosphatase, placental type (P05187 whole entry): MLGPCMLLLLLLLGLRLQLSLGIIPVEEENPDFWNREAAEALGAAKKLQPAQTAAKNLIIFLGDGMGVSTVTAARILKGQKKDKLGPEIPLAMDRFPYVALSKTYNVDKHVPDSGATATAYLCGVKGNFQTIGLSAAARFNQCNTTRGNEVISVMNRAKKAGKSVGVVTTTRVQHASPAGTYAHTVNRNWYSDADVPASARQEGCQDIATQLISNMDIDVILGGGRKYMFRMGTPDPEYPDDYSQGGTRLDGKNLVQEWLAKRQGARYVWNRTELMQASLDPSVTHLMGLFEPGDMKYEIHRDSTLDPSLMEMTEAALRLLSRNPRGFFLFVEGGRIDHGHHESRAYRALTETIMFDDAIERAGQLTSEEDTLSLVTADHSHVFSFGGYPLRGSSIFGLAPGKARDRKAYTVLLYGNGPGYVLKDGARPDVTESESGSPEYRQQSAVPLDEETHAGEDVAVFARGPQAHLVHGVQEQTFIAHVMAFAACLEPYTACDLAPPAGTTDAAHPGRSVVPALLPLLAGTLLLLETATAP
Chain of Dual specificity protein phosphatase 3 (P51452 whole entry): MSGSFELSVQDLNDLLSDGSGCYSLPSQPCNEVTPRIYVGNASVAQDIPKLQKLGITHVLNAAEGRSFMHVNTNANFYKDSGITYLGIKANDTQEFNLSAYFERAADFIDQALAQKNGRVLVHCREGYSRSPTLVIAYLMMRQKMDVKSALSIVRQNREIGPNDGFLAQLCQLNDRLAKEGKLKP

Cc1n[nH]c2c1C(c1c[nH]c3ccccc13)C(C#N)=C(N)O2 (stereo not given)
EC50 (Caspase-3): 23.1 µM (inactive) | EC50 (Caspase-7): 27.8 µM (inactive) | AC50 [1]: 3.79 µM (active) | EC50 (Protein RecA): 2.03 µM (active)

Cc1ccc(NC(S)=NNC(=O)c2cn(C)nc2C)cc1
IC50 [2]: > 100 µM (inactive) | IC50 [3]: > 100 µM (inactive) | IC50 [4]: > 100 µM (inactive)

COc1cc2c(cc1NC(=O)CSc1ccc(Cl)cc1)oc1ccccc12
EC50 [5]: 20.7 µM (inactive)

CCN(c1ccccc1)S(=O)(=O)c1ccc(NCC2COc3ccccc3O2)nc1 (stereo not given)
IC50 [6]: 6.56 µM (active) | EC50 [7]: 7.97 µM (active)
